Calls of active or inactive are those of the source.

As usually defined, the EC50 is the concentration needed to bring the measured effect to its halfway point. By AC50 is commonly meant the concentration giving half of the maximal activity seen.

Assay [1] deals with T1, Dual specificity protein phosphatase 3 (Homo sapiens, UniProt P51452). As to the kind of experiment: VHR1 phosphatase inhibitors, biochemical (AID 1878).
The target of assay [2] is T2, Endoribonuclease toxin MazF (Escherichia coli K-12, UniProt P0AE70).
T2 sequence (P0AE70 whole entry): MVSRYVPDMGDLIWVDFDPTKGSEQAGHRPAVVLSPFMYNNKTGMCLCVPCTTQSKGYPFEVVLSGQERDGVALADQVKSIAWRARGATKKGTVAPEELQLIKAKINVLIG
As to the kind of experiment: activation of MazEF endoribonuclease cleavage – biochemical, fluorescence, single-stranded RNA substrate, uHTS hits, dose response (AID 588481). The assay is classed as functional.

Assay [3] concerns the target T1, Dual specificity protein phosphatase 3. Put plainly: VHR1 phosphatase inhibitors, primary screen, biochemical, absorbance, uHTS (AID 1654).
Assay [4] deals with T3, Dual specificity protein phosphatase 6 (Rattus norvegicus, UniProt Q64346).
T3 sequence (Q64346 whole entry): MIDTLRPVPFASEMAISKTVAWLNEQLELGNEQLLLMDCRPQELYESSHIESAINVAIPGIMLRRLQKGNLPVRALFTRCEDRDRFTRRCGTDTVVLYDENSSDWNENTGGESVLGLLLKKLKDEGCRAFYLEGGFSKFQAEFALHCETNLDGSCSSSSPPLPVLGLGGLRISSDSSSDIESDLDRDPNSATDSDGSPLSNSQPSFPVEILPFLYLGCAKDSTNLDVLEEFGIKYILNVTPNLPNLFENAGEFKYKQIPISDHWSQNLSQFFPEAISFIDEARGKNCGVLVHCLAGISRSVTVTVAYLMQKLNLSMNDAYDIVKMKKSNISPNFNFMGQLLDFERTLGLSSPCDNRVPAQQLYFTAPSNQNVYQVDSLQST
As to the kind of experiment: inhibition of rat DUSP6 enzyme activity – biochemical, in vitro, primary screen (AID 425).

The target in the next assay is Caspase-7 (Homo sapiens, UniProt P55210). As to the kind of experiment: caspase-7 enzyme inhibition, selectivity check – biochemical, DEVD-R110 fluorescence, cherry-pick, selectivity assay for caspase-6 inhibitor project, dose response (AID 743295). The assay is classed as functional.
Caspase-7, sequence (P55210 24-198 limits assumed): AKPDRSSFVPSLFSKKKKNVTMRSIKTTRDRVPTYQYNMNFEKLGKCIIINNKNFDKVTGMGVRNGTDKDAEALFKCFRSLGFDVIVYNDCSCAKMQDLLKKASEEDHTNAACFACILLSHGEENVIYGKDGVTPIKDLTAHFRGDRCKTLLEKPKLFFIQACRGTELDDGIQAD
Caspase-7, sequence (P55210 207-303 limits assumed): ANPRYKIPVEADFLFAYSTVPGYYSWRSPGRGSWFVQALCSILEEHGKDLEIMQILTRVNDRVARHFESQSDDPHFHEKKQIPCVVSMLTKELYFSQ
Assay [5] has as its target Polyadenylate-binding protein 1 (Homo sapiens, UniProt P11940). Put plainly: MLLE binding blockers, Cy5 peptide tracer – biochemical, fluorescence polarization, Cy5-PAM2 peptide, secondary, miRNA deadenylation inhibitor project, dose response (AID 602260). The class given is functional. To be noted: read-out: IC50_Mean.
Assay [6] addresses Cyclin-dependent kinase 5/CDK5 activator 1 (Homo sapiens, UniProt Q00535). As to the kind of experiment: blockade of human CDK5 activity – biochemical, cherry-picked samples, set 2, dose response (AID 504545).
Another assay has as its target Cytochrome P450 3A4 (Homo sapiens, UniProt P08684). The conditions noted are these: Potency.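 Also: confirmatory qHTS run detecting inhibitors and substrates of CYP3A4.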
For assay [7], the target named is Bifunctional protein GlmU (Mycobacterium tuberculosis, UniProt P9WMN3). As to the kind of experiment: Inhibitors of Mycobacterial Glucosamine-1-phosphate acetyl transferase (GlmU). Secondary screen. More on the design: species or system Mycobacterium tuberculosis H37Rv.
Bifunctional protein GlmU, sequence (P9WMN3 whole entry): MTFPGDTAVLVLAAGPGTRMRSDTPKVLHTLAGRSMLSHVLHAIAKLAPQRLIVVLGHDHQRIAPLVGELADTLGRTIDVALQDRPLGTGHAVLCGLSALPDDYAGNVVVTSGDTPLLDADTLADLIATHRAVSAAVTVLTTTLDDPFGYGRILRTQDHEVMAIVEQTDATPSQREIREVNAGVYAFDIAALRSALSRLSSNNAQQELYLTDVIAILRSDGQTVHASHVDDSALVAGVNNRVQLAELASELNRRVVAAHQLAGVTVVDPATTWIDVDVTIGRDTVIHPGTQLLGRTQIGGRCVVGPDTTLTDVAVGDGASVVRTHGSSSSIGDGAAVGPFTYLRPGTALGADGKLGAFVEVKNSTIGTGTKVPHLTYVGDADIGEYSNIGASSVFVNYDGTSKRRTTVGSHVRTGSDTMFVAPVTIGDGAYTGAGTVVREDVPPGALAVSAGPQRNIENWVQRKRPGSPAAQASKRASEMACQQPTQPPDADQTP
Another assay addresses Albumin (Bos taurus, UniProt P02769). Put plainly: Counterscreen for inhibitors of T-cell receptor (TCR)-CD3 interaction: Fluorescence-based biochemical high throughput dose response assay to identify inhibitors of T-cell receptor (TCR)-CD3 interaction using a TAMRA-labeled BSA probe. The assay is classed as functional. (The purpose of a counterscreen is to sort out artefacts and off-target activity.)

Assay [8] concerns the target T4, Histone-lysine N-methyltransferase NSD2 (Homo sapiens, UniProt O96028).
T4 sequence (O96028 whole entry): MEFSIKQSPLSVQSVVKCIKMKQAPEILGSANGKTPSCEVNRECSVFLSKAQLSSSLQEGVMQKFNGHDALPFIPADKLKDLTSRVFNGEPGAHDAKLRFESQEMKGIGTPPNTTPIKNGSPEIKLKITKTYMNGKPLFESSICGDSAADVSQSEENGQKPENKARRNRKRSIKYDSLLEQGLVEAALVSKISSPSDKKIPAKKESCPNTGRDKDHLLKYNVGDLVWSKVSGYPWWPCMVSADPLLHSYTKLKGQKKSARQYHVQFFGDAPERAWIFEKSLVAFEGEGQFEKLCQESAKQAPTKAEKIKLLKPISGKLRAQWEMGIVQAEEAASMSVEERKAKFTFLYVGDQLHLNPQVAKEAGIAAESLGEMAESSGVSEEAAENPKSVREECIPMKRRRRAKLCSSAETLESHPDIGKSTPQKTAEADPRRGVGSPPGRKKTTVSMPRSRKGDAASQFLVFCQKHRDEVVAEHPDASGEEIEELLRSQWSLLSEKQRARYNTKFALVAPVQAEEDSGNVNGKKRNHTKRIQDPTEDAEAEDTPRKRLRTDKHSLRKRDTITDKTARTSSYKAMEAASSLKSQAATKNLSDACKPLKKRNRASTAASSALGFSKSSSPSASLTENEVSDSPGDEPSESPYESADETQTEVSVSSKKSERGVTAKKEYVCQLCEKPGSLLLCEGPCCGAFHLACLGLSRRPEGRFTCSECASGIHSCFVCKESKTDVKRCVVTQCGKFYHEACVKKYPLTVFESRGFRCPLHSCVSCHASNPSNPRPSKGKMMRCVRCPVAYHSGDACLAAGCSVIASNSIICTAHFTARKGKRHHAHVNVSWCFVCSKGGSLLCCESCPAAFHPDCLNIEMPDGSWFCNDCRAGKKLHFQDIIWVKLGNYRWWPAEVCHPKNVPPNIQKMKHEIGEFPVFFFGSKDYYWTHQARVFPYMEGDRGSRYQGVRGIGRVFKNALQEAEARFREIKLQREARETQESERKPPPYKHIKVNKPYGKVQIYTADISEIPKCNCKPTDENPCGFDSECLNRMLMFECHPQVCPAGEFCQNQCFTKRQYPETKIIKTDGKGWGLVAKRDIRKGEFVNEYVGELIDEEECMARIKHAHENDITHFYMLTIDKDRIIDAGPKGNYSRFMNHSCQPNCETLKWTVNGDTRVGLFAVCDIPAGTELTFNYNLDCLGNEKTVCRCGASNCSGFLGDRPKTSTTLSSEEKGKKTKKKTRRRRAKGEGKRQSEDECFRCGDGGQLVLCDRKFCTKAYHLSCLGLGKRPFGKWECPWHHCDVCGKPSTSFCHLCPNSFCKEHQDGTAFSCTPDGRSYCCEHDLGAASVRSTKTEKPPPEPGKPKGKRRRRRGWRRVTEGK
The class given is biochemical.

For another assay, the target named is Genome polyprotein (dengue virus type 2, UniProt P29990). As to the kind of experiment: flavivirus cap methylation enzyme inhibition – biochemical, confirmation dose response, primary screen (AID 588689). The assay is classed as functional.
Genome polyprotein, sequence (P29990 2492-3391 limits assumed): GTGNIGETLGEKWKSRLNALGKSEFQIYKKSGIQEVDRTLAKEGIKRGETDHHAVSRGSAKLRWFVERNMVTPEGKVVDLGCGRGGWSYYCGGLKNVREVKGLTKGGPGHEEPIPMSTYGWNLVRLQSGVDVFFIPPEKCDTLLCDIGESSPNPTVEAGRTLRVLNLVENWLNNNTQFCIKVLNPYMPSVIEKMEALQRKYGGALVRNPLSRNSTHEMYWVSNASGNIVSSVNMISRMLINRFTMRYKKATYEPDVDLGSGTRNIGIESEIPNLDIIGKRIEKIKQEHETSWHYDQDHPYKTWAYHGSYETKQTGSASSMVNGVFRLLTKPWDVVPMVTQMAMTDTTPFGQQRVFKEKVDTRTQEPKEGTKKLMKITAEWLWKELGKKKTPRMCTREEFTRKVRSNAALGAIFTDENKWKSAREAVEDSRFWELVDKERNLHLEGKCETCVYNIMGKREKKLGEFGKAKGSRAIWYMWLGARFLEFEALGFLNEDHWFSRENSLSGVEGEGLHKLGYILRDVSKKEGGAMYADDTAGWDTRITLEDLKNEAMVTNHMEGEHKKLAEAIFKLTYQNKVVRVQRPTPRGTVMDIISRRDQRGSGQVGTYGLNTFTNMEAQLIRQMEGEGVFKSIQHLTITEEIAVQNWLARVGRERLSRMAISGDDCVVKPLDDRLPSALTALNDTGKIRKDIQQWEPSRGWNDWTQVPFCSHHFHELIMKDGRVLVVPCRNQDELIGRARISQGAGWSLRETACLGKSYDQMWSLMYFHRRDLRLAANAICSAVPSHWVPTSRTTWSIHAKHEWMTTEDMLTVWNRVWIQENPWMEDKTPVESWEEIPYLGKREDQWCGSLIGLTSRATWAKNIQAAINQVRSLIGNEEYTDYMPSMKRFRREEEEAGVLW
The next assay has as its target ORF 73 (Human herpesvirus 8, UniProt O40947). As to the kind of experiment: KSHV LANA DNA-binding disruption – biochemical, fluorescence polarization, cherry-picked samples, dose response (AID 504725).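 Also: fluorescence polarization of a labeled DNA duplex reporting LANA DNA binding; potency is for inhibitors that block LANA binding to the DNA.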 Set-up: species or system Human gammaherpesvirus 8. A general note: Fluorescence polarisation rises when a labelled molecule tumbles more slowly, as on binding a larger partner.

For a further assay, the target named is Caspase-6 (Homo sapiens, UniProt P55212). Put plainly: inhibition of CASP6 peptide cleavage – biochemical, VEID-R110 fluorescence, cherry-pick, dose response (AID 720632).
Caspase-6, sequence (P55212 24-179 limits assumed): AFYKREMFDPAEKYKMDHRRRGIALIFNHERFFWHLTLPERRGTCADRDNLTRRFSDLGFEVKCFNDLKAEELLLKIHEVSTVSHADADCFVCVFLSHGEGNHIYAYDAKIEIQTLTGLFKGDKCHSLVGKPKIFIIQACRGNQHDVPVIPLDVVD
Caspase-6, sequence (P55212 194-293 limits assumed): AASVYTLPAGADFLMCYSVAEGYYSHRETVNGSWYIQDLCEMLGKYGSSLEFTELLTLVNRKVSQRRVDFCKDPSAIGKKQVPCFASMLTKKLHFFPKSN

T1 sequence (P51452 whole entry): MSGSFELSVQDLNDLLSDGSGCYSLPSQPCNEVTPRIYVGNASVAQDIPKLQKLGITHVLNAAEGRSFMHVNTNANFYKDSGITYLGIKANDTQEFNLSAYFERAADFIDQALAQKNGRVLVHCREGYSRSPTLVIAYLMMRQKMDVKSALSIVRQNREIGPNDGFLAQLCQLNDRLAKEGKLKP
Albumin, sequence (P02769 whole entry): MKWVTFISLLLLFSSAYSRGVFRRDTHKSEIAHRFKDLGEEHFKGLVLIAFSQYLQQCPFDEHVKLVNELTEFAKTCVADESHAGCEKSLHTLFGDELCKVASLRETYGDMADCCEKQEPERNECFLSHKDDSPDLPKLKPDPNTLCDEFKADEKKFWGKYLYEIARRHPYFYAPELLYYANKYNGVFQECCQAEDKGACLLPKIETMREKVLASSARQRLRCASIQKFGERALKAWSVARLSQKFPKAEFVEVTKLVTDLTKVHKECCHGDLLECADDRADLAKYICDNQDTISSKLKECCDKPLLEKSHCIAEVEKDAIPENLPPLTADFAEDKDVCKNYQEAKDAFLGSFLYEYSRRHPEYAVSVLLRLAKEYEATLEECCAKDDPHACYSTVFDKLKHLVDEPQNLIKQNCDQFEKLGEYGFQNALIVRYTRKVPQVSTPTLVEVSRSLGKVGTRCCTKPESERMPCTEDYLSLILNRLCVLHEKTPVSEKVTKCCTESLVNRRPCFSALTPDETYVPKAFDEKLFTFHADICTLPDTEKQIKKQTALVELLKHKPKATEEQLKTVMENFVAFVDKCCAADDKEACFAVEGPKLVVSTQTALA
Cytochrome P450 3A4, sequence (P08684 whole entry): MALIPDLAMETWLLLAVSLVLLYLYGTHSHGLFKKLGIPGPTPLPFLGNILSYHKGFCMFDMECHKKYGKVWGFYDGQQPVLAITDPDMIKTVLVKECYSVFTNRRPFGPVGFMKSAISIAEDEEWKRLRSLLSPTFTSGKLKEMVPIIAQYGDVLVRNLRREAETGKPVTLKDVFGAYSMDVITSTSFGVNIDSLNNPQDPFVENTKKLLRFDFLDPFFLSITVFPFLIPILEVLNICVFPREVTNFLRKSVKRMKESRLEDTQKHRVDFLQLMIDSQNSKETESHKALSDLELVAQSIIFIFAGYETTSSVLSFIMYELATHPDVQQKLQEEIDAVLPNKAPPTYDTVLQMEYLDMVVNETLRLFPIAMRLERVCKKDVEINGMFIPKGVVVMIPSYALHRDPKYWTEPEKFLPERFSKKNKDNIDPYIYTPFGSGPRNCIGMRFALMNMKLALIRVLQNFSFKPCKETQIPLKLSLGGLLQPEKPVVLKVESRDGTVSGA
Cyclin-dependent kinase 5/CDK5 activator 1, sequence (Q00535 whole entry): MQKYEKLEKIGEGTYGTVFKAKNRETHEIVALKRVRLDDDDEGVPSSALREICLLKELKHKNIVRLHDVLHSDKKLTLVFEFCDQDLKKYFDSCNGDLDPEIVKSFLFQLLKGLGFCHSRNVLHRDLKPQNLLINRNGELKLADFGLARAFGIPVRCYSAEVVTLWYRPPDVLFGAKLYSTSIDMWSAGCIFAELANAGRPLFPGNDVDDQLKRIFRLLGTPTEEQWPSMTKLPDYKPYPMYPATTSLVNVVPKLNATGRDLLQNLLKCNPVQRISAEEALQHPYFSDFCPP
Cyclin-dependent kinase 5/CDK5 activator 1, sequence (Q15078 whole entry, further chain): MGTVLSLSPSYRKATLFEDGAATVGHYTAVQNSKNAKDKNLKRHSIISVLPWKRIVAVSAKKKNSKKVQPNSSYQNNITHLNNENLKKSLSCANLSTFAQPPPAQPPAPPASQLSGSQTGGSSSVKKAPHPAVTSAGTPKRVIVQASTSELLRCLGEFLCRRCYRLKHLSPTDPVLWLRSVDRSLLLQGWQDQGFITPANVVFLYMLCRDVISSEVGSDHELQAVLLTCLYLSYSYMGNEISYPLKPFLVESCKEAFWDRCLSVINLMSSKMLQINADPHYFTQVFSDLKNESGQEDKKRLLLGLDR
ORF 73, sequence (O40947 whole entry): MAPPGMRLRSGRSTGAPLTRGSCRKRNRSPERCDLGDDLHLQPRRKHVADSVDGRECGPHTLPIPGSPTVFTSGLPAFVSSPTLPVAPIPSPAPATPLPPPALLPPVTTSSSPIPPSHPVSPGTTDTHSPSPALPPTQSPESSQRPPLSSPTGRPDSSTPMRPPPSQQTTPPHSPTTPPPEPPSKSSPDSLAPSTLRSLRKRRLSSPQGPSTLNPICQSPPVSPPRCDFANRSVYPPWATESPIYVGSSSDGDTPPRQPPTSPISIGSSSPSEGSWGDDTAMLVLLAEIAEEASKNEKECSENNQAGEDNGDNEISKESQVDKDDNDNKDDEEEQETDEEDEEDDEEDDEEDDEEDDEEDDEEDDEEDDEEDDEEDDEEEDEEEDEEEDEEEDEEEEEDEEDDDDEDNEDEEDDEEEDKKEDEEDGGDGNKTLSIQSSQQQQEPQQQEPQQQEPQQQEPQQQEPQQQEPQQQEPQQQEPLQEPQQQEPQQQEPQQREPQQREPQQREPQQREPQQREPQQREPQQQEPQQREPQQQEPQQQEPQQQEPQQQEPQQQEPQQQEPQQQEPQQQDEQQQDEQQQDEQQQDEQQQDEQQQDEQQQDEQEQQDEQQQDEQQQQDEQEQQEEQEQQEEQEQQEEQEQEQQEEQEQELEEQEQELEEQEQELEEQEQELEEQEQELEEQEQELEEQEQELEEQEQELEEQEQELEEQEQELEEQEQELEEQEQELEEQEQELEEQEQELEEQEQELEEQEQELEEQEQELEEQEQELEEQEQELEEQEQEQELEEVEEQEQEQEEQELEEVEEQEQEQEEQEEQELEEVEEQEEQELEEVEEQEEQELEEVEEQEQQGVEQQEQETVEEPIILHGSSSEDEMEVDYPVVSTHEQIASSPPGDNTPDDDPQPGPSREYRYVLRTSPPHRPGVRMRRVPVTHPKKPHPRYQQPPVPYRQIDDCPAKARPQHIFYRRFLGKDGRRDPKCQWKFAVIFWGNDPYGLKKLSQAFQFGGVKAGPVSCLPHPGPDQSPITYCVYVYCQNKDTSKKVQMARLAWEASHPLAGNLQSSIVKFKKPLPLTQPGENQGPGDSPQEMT

On to `O=c1c(O)cccc2cc(O)c(O)c(O)c12` [PURPUROGALLIN], for which the IC50 in [1] is < 1.23 µM (inactive); in assay [3] it was < 0.98 µM (inactive); in assay [4] it was 29.2 µM (active); in [5], > 66 µM (inactive); in assay [7] it was 21.5 µM (active); at Albumin it was > 94.1 µM (inactive). In addition, the IC50 on Genome polyprotein was 12.2 µM (active). In addition, the EC50 in [2] is 80.3 µM (inactive). For the same compound, the AC50 on Caspase-7 was 1.09 µM (active); in assay [6], 23.2 µM (active); on Cytochrome P450 3A4, 31.6 µM (inconclusive); in assay [8] it was 0.532 µM (active); at ORF 73 it was 25.9 µM (active); at Caspase-6 it was 0.0804 µM (active).

(Values after ChEMBL document CHEMBL1201862, “PubChem BioAssay data set” (2004).)
